The source of these data is patent US12086788B2, “Substituted pyrazines as inhibitors of BTK, and mutants thereof” (Newave Pharmaceutical Inc., priority 2018, dated 2024).

Entries after “also recorded” stand apart in the source; their conditions may differ. Some results are limits rather than exact numbers.

Series [1] deals with T1, WT BTK (Homo sapiens, UniProt Q06187). The series is described as follows: In vitro dialysis assay (irreversibility assay). Type of series: biochemical. The conditions noted are these: from recovery after 24 h dialysis. The protocol:
The compound-enzyme complex was dialyzed against the same buffer supplemented with 40 mM ATP for 24 hr. Cumulative dialysis factor>160,000×. After dialysis, the BTK activity was measured in the presence […] and 1 mM substrate peptide and compared to that in non-dialyzed samples. Assay buffer: 100 mM HEPES, pH7.5; 0.1% BSA, 0.01% Triton-X 100; 5 mM MgCl2; 1 mM DTT.

Series [2] concerns the target T1, WT BTK. The series is described as follows: Caliper-based biochemical enzymatic assay (IC50), WT BTK. The settings on record: 0.5 nM enzyme, ATP 16 μM, room temperature 3 h; read-out: WT BTK IV50 (nM) (irreversible inhibition). The protocol:
(§1) The reaction was then terminated with EDTA, final concentration 20 mM and the phosphorylated reaction product was quantified on a Caliper Desktop Profiler (Caliper LabChip 3000).

The target of series [3] is T2, C481S BTK (Homo sapiens, UniProt Q06187, C481S). The series is described as follows: Caliper-based biochemical enzymatic assay (IC50), C481S BTK. The settings on record: for IC50: 0.5 nM enzyme, ATP 16 μM, room temperature 3 h, read-out: C481S BTK IC50 (nM) (reversible inhibition). The protocol:
as §1

Series [4] deals with T2, C481S BTK. The series is described as follows: Reversibility of binding to the C481S BTK enzyme. Type of series: biochemical. The settings on record: Cysteine residue not available for covalent binding.
The test system of series [5] is basophil activation, B cell receptor activation, and constitutive p-BTK activity in whole blood lysates. The conditions noted are these: read-out: IC50s for basophil activation, B cell receptor activation, and constitutive p-BTK activity; cited from earlier work.
Series [6] relates to rats. The conditions noted are these: treatment for longer than 7 days; cited from earlier work.
In series [7] the test system is mice. The conditions noted are these: even at higher doses; cited from earlier work.
Series [8] deals with dogs. The settings on record: even at higher doses; cited from earlier work.
The conditions of series [9]: Phase I clinical trials, formulations containing GDC-0853; cited from earlier work.

T2 sequence (Q06187 whole entry C481S): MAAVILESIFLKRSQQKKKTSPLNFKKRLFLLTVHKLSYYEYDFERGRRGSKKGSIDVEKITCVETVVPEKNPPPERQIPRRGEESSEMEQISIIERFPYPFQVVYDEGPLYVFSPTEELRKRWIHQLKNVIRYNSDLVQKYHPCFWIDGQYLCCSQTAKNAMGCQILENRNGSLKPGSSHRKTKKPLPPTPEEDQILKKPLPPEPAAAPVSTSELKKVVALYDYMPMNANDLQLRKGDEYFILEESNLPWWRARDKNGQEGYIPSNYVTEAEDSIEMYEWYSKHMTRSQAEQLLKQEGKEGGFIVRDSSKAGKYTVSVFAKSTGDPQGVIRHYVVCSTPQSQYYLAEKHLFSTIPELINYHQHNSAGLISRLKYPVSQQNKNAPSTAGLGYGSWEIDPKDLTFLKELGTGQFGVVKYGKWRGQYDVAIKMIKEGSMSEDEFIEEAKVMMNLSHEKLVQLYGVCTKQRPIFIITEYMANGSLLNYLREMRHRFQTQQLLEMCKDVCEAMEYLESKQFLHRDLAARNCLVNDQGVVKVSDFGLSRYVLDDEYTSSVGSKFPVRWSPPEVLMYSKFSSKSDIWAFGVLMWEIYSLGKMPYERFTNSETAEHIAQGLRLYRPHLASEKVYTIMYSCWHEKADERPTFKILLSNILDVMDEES
T1 sequence (Q06187 whole entry): as the sequence (Q06187 whole entry C481S) above, with S481C counted along it

`C=CC(=O)Nc1cc(Nc2nc(-c3ccnc(N4CCn5c(cc6c5CC(C)(C)C6)C4=O)c3CO)cn(C)c2=O)ccc1N1CCN(C)CC1` [Example 2, N-(5-((6-(2-(7,7-dimethyl-1-oxo-1,3,4,6,7,8-hexahydro-2H-cyclopenta[4,5]pyrrolo[1,2-a]pyrazin-2-yl)-3-(hydroxymethyl)pyridin-4-yl)-4-methyl-3-oxo-3,4-dihydropyrazin-2-yl)amino)-2-(4-methylpiperazin-1-yl)phenyl)acrylamide]: in series [1], the “Conclusion (WT BTK)” value is “irreversible inhibitors; also recorded: Irreversible/covalent inhibition”. Moreover, in [2], the IC50 turned out to be 0.25 nM. For the same molecule, in series [3], the “fold more potent than ACT-196 in C481S BTK assay” value worked out at 477, the “fold more potent than Ibrutinib in C481S BTK assay” value turned out to be 64 and the IC50 amounted to 1.7 nM. Also, the “mode of binding to C481S BTK” value in series [4] is “reversibly bind”.
Turning to `C=CC(=O)Nc1cc(Nc2nc(-c3ccnc(N4CCn5c(cc6c5CC(C)(C)C6)C4=O)c3CO)cn(C)c2=O)ccc1N1CCN(C2COC2)C[C@@H]1C` [Example 3, (S)—N-(5-((6-(2-(7,7-dimethyl-1-oxo-1,3,4,6,7,8-hexahydro-2H-cyclopenta[4,5]pyrrolo[1,2-a]pyrazin-2-yl)-3-(hydroxymethyl)pyridin-4-yl)-4-methyl-3-oxo-3,4-dihydropyrazin-2-yl)amino)-2-(2-methyl-4-(oxetan-3-yl)piperazin-1-yl)phenyl)acrylamide], in [1], the “Conclusion (WT BTK)” value was “irreversible inhibitors; also recorded: Irreversible/covalent inhibition”. The IC50 in series [2] and in [3] was below 1 nM in each case.
As to `C=CC(=O)Nc1cc(Nc2nc(-c3ccnc(N4CCn5c(cc6c5CC(C)(C)C6)C4=O)c3C)cn(C)c2=O)ccc1N1CCN(C2COC2)C[C@@H]1C` [Example 11, (S)—N-(5-((6-(2-(7,7-dimethyl-1-oxo-1,3,4,6,7,8-hexahydro-2H-cyclopenta[4,5]pyrrolo[1,2-a]pyrazin-2-yl)-3-methylpyridin-4-yl)-4-methyl-3-oxo-3,4-dihydropyrazin-2-yl)amino)-2-(2-methyl-4-(oxetan-3-yl)piperazin-1-yl)phenyl)acrylamide], the “Conclusion (WT BTK)” value in series [1] is reported as “irreversible inhibitors; also recorded: Irreversible/covalent inhibition”. Moreover, the IC50 in [2] and in [3] was below 1 nM throughout.
For the molecule `C=CC(=O)Nc1cc(Nc2nc(-c3ccnc(N4CCn5c(cc6c5CC(C)(C)C6)C4=O)c3CO)cn(C)c2=O)ccc1N1CCC(N2CCOCC2)CC1C` (stereo not drawn) [Example 12, N-(5-((6-(2-(7,7-dimethyl-1-oxo-1,3,4,6,7,8-hexahydro-2H-cyclopenta[4,5]pyrrolo[1,2-a]pyrazin-2-yl)-3-(hydroxymethyl)pyridin-4-yl)-4-methyl-3-oxo-3,4-dihydropyrazin-2-yl)amino)-2-(2-methyl-4-morpholinopiperidin-1-yl)phenyl)acrylamide], in series [1], the “Conclusion (WT BTK)” value was “irreversible inhibitors; also recorded: Irreversible/covalent inhibition”. Further, the IC50 in series [2] and in series [3] was below 1 nM each time.
Turning to `C[C@H]1CN(C2COC2)CCN1c1ccc(Nc2cc(-c3ccnc(N4CCn5c(cc6c5CC(C)(C)C6)C4=O)c3CO)cn(C)c2=O)nc1` [GDC-0853], the “Conclusion (WT BTK)” value in series [1] is “Reversible”. Besides, in series [5], the IC50 was 2 to 9 nM. Further, the figures for the pancreatic toxicity result in [6], in [7] and in series [8] were “pancreatic toxicity”, “does not occur” and “does not occur”, respectively. In addition, the tolerability entry in series [9] was “well-tolerated”.
